Assay results from US20060094721A9, “Sulfonamides as potassium channel blockers” (Icagen, Inc., priority 2002, published 2006).

These molecules were tested against T1, intermediate conductance, calcium activated potassium channel (Gardos channel) in red blood cells (Homo sapiens, UniProt O15554) (assay: 86Rb flux assay for inhibition of the Gardos channel in red blood cells (Example 4)). Conditions: CaCl2 and A23187.
T1 construct: endogenous in cells; host or cells: red blood cells from heparinized whole blood
Format: cell-based
Experimental: Activities for selected compounds of the invention were determined using the assay set forth in Example 4, and are presented in Table 1.
Example 4 illustrates the use of a rubidium flux assay to determine the activity of the compounds of the invention.
Example 4 describes a bioassay for measuring the inhibition of a calcium activated potassium channel, the Gardos channel, in red blood cells by the compounds of the invention.
Heparinized whole blood was washed three times with Modified Flux Buffer (MFB: 140 mM NaCl; 5 mM KCl; 10 mM Tris; 0.1 mM EGTA; pH=7.4). Red blood cells (“RBCs”) at an approximate 10% hematocrit. Washed cells were then incubated for 3 hours with ^86Rb (5 μCi/mL). After this incubation period, the RBCs were washed three times with cold MFB. Washed ^86Rb loaded RBCs were then incubated with a test compound of the invention for 10 minutes. ^86Rb flux was then initiated by the addition of 10 μL/mL of a MFB solution containing 10 mM CaCl2 and 100 μM A23187, a calcium ionophore. This yielded a final concentration of 100 μM CaCl2 and […] A23187 n the incubation medium. Cells were incubated for 10 minutes, spun down and the supernatant was removed. Samples were counted in a Wallace Microbeta liquid scintillation counter by Cerenkov emission. Total RBC ^86Rb content was determined by lysing the RBCs with water and then precipitating protein using a 50:50 mixture of ethanol:chloroform. After a 20 minute microfuge spin, the aqueous and organic layers separated and the aqueous layer was removed and counted. Efflux is expressed as a percentage of the initial cell content of ^86Rb.

| Compound | Activity (relative potencies in the intermediate conductance, calcium activated potassium channel blocker assay, IC50 class) |
| --- | --- |
| COC(=O)C1=C(NS(=O)(=O)c2cccc(C(F)(F)F)c2)CCCC1 [Compound 31, 2-(3-trifluoromethyl-benzenesulfonylamino)-cyclohex-1-enecarboxylic Acid Methyl Ester] | ++ (++ represents 2 μM < IC50 < 0.5 μM) |
| O=S(=O)(Nc1ccccc1-c1ncco1)c1cccc(C(F)(F)F)c1 [Compound 74, N-(2-Oxazol-2-yl-phenyl)-3-trifluoromethyl-benzenesulfonamide] | ++ (++ represents 2 μM < IC50 < 0.5 μM) |
| Cc1noc(-c2ccccc2NS(=O)(=O)c2cccc(C(F)(F)F)c2)n1 [Compound 82, N-[2-(3-methyl-[1,2,4]oxadiazol-5-yl)-phenyl]-3-trifluoromethyl-benzenesulfonamide] | ++ (++ represents 2 μM < IC50 < 0.5 μM) |
| COc1noc(-c2ccccc2NS(=O)(=O)c2cccc(C(F)(F)F)c2)n1 [Compound 83, N-[2-(3-methoxy-[1,2,4]oxadiazol-5-yl)-phenyl]-3-trifluoromethyl-benzenesulfonamide] | ++ (++ represents 2 μM < IC50 < 0.5 μM) |
| COC(=O)c1ccccc1CS(=O)(=O)c1cccc(C(F)(F)F)c1 [Compound 95, 2-(3-Trifluoromethyl-benzenesulfonylmethyl)-benzoic Acid Methyl Ester] | ++ (++ represents 2 μM < IC50 < 0.5 μM) |
| COC(=O)c1ccccc1CSc1cccc(C(F)(F)F)c1 [Compound 96, 2-(3-Trifluoromethyl-phenylsulfanylmethyl)-benzoic Acid Methyl Ester] | + (+ Represents 10 μM < IC50 < 2 μM) |

Same assay, conditions: CaCl2 and A23187, read-out: Activity (relative potencies in the intermediate conductance, calcium activated potassium channel blocker assay, IC50 class)

| Compound | IC50 [nM] |
| --- | --- |
| COc1ccc(NS(=O)(=O)c2cccc(C(F)(F)F)c2)c(-c2ncco2)c1 [Compound 40, N-(4-Methoxy-2-oxazol-2-yl-phenyl)-3-trifluoromethyl-benzenesulfonamide] | < 500 |
| COc1cc(NS(=O)(=O)c2cccc(C(F)(F)F)c2)c(-c2nc(C)no2)cc1OC [Compound 41, N-[4,5-dimethoxy-2-(3-methyl-[1,2,4]oxadiazol-5-yl)-phenyl]-3-trifluoromethyl-benzenesulfonamide] | < 500 |
| O=S(=O)(Nc1ccccc1-c1ccco1)c1cccc(C(F)(F)F)c1 [Compound 76, N-(2-furan-2-yl-phenyl)-3-trifluoromethyl-benzenesulfonamide] | < 500 |
